Among the data in PubChem BioAssay (NCI) are GI50 and TGI values, retold here.

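Method: 48-hour compound exposure of cells in 96-well plates, five concentrations, linear interpolation of endpoints. GI50: concentration for 50% inhibition of growth. Definition used: TGI = concentration required for complete inhibition of growth.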

Among the test systems are DU-145 prostate; HCC-2998 colon; OVCAR-4 ovarian; A549 NSCLC; SK-MEL-28 melanoma; K-562 leukemia; HS 578T breast; TK-10 renal; PC-3 prostate; A498 renal.
Assay in all cases: inhibition of tumour cell growth, NCI panel, 48 h

For the compound `CCCCCCCCCCCCCCCCCC1=NC(C)(C)CN1C(C)(C)CO`, the GI50 in the test on DU-145 prostate was 1.61 µM; in the test with HCC-2998 colon, 1.2 µM; in the test on OVCAR-4 ovarian, 2.05 µM; in the test with A549 NSCLC, 1.68 µM; in the test with SK-MEL-28 melanoma, 1.81 µM; in the test on K-562 leukemia, 1.11 µM. The GI50 was 1.62 µM in the test with HS 578T breast, 1.83 µM in the test on TK-10 renal, 1.85 µM with PC-3 prostate and 11.2 µM in the test with A498 renal. For the same compound, the TGI stood at 3.03 µM in the test on DU-145 prostate; 2.5 µM in the test on HCC-2998 colon; 4.92 µM in the test with OVCAR-4 ovarian; 3.31 µM with A549 NSCLC; 3.28 µM with SK-MEL-28 melanoma; 4.05 µM in the test on K-562 leukemia. Also, the TGI is 3.98 µM in the test with HS 578T breast, 3.34 µM in the test with TK-10 renal, 4.81 µM in the test with PC-3 prostate and 31.2 µM in the test with A498 renal.

As for `Cc1cc(C)c([I+]c2c(C)cc(C)cc2C)c(C)c1`, the GI50 with DU-145 prostate was 0.622 µM; in the test on HCC-2998 colon it was 0.415 µM; with OVCAR-4 ovarian it was 0.277 µM; in the test with A549 NSCLC, 0.958 µM; in the test with SK-MEL-28 melanoma it was 0.774 µM; in the test on K-562 leukemia, 0.319 µM. For the same compound, the GI50 with HS 578T breast was 0.795 µM; in the test on TK-10 renal, 0.712 µM; with PC-3 prostate, 0.259 µM; with A498 renal it was 1.56 µM. Also, the TGI was 2.02 µM in the test on DU-145 prostate; 1.73 µM with HCC-2998 colon; 1.35 µM with OVCAR-4 ovarian; 2.47 µM with A549 NSCLC; 2.08 µM in the test with SK-MEL-28 melanoma; 1.43 µM with K-562 leukemia. For the same compound, the TGI amounted to 2.68 µM with HS 578T breast, 2.06 µM in the test with TK-10 renal, 1.14 µM with PC-3 prostate and 3.64 µM in the test with A498 renal.

Regarding `COc1ccc(-c2c(NC(=O)Nc3ccc(Cl)c(C(F)(F)F)c3)cnn2-c2ccc(S(N)(=O)=O)cc2)cc1`, the GI50 is 3.46 µM in the test on DU-145 prostate; 3.13 µM in the test with HCC-2998 colon; 2.9 µM in the test on OVCAR-4 ovarian; 3.46 µM with A549 NSCLC; 3.73 µM with SK-MEL-28 melanoma; 3.13 µM with K-562 leukemia. Besides, the GI50 in the test with HS 578T breast is 3.41 µM; in the test with TK-10 renal, 3.85 µM; in the test on PC-3 prostate it was 2.87 µM; with A498 renal, 2.84 µM. The TGI in the test on DU-145 prostate worked out at 12.1 µM; with HCC-2998 colon it was 8.85 µM; with OVCAR-4 ovarian it was 13.1 µM; with A549 NSCLC, 13.6 µM; with SK-MEL-28 melanoma, 13.7 µM; with K-562 leukemia, 16.9 µM. Moreover, the TGI in the test on HS 578T breast amounted to 16.9 µM; in the test with TK-10 renal it was 15.3 µM; in the test on PC-3 prostate, 11.4 µM; with A498 renal it was 8.29 µM.

In the case of `O=C1/C(=C/c2ccc(Cl)cc2)N=C(c2ccccc2)N1c1cc(C(F)(F)F)ccc1Cl`, the GI50 in the test on DU-145 prostate was 31.2 µM; in the test with HCC-2998 colon, 27.5 µM; in the test on OVCAR-4 ovarian, 20.2 µM; in the test with A549 NSCLC, 24.2 µM; with SK-MEL-28 melanoma it was 39.1 µM; with K-562 leukemia, 20.1 µM. Moreover, the GI50 with HS 578T breast is 21.4 µM; in the test on TK-10 renal it was 31.7 µM; with PC-3 prostate it was 20.8 µM; with A498 renal, 36.7 µM. In addition, the TGI in the test on DU-145 prostate is more than 100 µM; in the test with HCC-2998 colon it was 87 µM; in the test on OVCAR-4 ovarian, 89.7 µM; in the test on A549 NSCLC, more than 100 µM; in the test with SK-MEL-28 melanoma, more than 100 µM; in the test with K-562 leukemia, 79.9 µM. Also, the TGI is 66.5 µM in the test with HS 578T breast, more than 100 µM in the test on TK-10 renal, 71.8 µM with PC-3 prostate and more than 100 µM in the test with A498 renal.

As for `C=C(C)[C@@H]1C/C=C(/COC(C)=O)CC[C@H]2O[C@@]2(C)CC/C=C(\C)CC1`, the GI50 in the test with DU-145 prostate was more than 100 µM; with HCC-2998 colon, more than 100 µM; in the test with OVCAR-4 ovarian, more than 100 µM; in the test on A549 NSCLC it was 40.1 µM; in the test with SK-MEL-28 melanoma, more than 100 µM; in the test on K-562 leukemia, 21.4 µM. The GI50 with HS 578T breast, with TK-10 renal, in the test with PC-3 prostate and with A498 renal was more than 100 µM throughout. Also, the TGI in the test with DU-145 prostate is more than 100 µM; in the test with HCC-2998 colon, more than 100 µM; in the test with OVCAR-4 ovarian, more than 100 µM; in the test on A549 NSCLC it was more than 100 µM; in the test with SK-MEL-28 melanoma, more than 100 µM; in the test on K-562 leukemia, 45.1 µM. Further, the TGI with HS 578T breast, with TK-10 renal, with PC-3 prostate and with A498 renal was more than 100 µM each time.

Consider `Cc1ccc(NC(=O)CCc2nnc3s/c(=C\C=C\c4ccccc4)c(=O)n23)cc1`, for which the TGI in the test on DU-145 prostate was more than 100 µM; with HCC-2998 colon, more than 100 µM; with OVCAR-4 ovarian, more than 56.2 µM; in the test with A549 NSCLC, more than 100 µM; with SK-MEL-28 melanoma, more than 100 µM; with K-562 leukemia it was more than 100 µM. The TGI in the test on HS 578T breast, with TK-10 renal, in the test with PC-3 prostate and in the test on A498 renal was more than 100 µM throughout.

For `Oc1c(CN2CCCCC2)ccc2cccnc12`, the GI50 is 5.42 µM with DU-145 prostate; 6.6 µM in the test on HCC-2998 colon; 2.98 µM in the test with OVCAR-4 ovarian; 3.72 µM with A549 NSCLC; 9.23 µM with SK-MEL-28 melanoma; 3.63 µM in the test on K-562 leukemia. The GI50 with HS 578T breast is 11.1 µM; in the test with TK-10 renal, 3.98 µM; with PC-3 prostate, 7.12 µM; in the test on A498 renal, 5.46 µM. Further, the TGI is 36.4 µM in the test with DU-145 prostate; 32.8 µM in the test on HCC-2998 colon; 9.59 µM in the test with OVCAR-4 ovarian; 28.1 µM with A549 NSCLC; more than 100 µM with SK-MEL-28 melanoma; more than 100 µM in the test with K-562 leukemia. The TGI in the test with HS 578T breast is more than 100 µM; in the test on TK-10 renal, 42.9 µM; in the test on PC-3 prostate, more than 100 µM; with A498 renal it was 21.3 µM.
